For data set [1], the system named is SH-SY5Y. Kind of data set: Neuroprotective activity in human SH-SY5Y cells assessed as prevention of glyceraldehyde-induced neurite shortening at 10 uM incubated for 72 hrs by microsocopic analysis. It counts as functional.
For data set [2], the target named is T1, Acetylcholinesterase (Homo sapiens, UniProt P22303). Kind of data set: Inhibition of AChE (unknown origin) using acetylthiocholine iodide as substrate preincubated for 20 mins by DTNB reagent based Ellman's method. In general terms: In Ellman's method for cholinesterases, released thiocholine reacts with DTNB.
The target of data set [3] is T1, Acetylcholinesterase. Briefly: Inhibition of human recombinant AChE using acetylthiocholine chloride as substrate incubated for 20 mins by DTNB reagent based Ellman's method.
The target in a further data set is Beta-secretase 1 (Homo sapiens, UniProt P56817). Briefly: Inhibition of human BACE1 (1 to 454 residues) using APP harboring Swedish Lys/Met mutant-derived peptide as substrate by FRET assay.
Data set [4] has as its system SH-SY5Y. Briefly: Neuroprotective activity in human SH-SY5Y cells assessed as prevention of glyceraldehyde-induced neurite shortening at 1 uM incubated for 72 hrs by microsocopic analysis. Type of data set: functional.
The test system of data set [5] is VSMC. Briefly: Cytotoxicity against rat VSMC cells assessed as reduction in cell viability at 50 uM measured after 4 days. Type of data set: toxicity, cell-based. The settings on record: 96 h, time 4 day.
The test system of data set [6] is VSMC. Briefly: Cytotoxicity against rat VSMC cells assessed as reduction in cell viability at 20 uM measured after 4 days. Type of data set: toxicity, cell-based. To be noted: 96 h, time 4 day.
Data set [7] concerns VSMC. Briefly: Cytotoxicity against rat VSMC cells assessed as reduction in cell viability at 5 uM measured after 4 days. It counts as toxicity, cell-based. The settings on record: 96 h, time 4 day.
Data set [8] has as its target Melatonin receptor type 1A (Homo sapiens, UniProt P48039). Briefly: Agonist activity at human melatonin MT1 receptor stably expressing in human HEK293 cells. It counts as cell-based.
The target of data set [9] is T2, Melatonin receptor type 1B (Homo sapiens, UniProt P49286).
T2 sequence (P49286 whole entry): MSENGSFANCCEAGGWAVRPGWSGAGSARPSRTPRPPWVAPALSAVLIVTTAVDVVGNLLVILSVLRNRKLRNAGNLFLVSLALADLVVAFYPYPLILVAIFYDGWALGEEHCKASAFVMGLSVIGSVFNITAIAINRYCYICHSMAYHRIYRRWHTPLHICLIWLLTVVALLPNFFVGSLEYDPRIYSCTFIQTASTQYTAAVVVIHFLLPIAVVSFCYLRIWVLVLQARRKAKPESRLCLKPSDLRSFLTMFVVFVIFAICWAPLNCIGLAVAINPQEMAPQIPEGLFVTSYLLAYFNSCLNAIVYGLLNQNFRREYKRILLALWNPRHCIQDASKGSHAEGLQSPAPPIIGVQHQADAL
Briefly: Agonist activity at human melatonin MT2 receptor stably expressing in human HEK293 cells. Type of data set: cell-based.

Data set [10] deals with Amyloid-beta precursor protein (Homo sapiens) (UniProt P05067). Briefly: Inhibition of amyloid beta (unknown origin) at 10 uM relative to control.
Data set [11] deals with Gamma-secretase (Homo sapiens) (UniProt Q96BI3+Q9NZ42+Q8WW43+P49768+Q92542+P49810). Kind of data set: Binding affinity to his-tagged gamma-secretase (unknown origin) assessed as equilibrium constant by surface plasmon resonance analysis. Type of data set: protein-complex assay. For orientation: Surface plasmon resonance follows binding to a sensor surface in real time, without labels.

A further data set addresses Gamma-secretase. Briefly: Inhibition of gamma-secretase (unknown origin). Type of data set: protein-complex assay, Homo sapiens.
Data set [12] in a line: Oral bioavailability in RN rat at 20 mg/kg. The settings on record: in vivo. Type of data set: ADME, organism-based.
Data set [13] is described as follows: Drug metabolism in RN rat assessed as epimerization ratio at 20 mg/kg, po. It counts as ADME, organism-based. The settings on record: in vivo, read-out: Drug metabolism.
Data set [14] has as its target Amyloid-beta precursor protein (Homo sapiens) (UniProt P05067). Briefly: Inhibition of amyloid beta (unknown origin) assessed as reduction in fibril disaggregation at 20 uM incubated for 7 days by ThT fluorescence assay relative to control. To be noted: time 7.0 day.
The target is the same in data set [15]. Briefly: Inhibition of amyloid beta (unknown origin) fibril formation at 20 uM incubated for 7 days by ThT fluorescence assay relative to control. To be noted: time 7.0 day.
Data set [16] in a line: Cmax in mouse plasma at 250 mg/kg, po measured after 24 hrs. Type of data set: ADME, organism-based. Set-up: dose 250 mg/kg, time 24 hrs, route po.
Data set [17] addresses T3, 5-hydroxytryptamine receptor 1A (Homo sapiens, UniProt P08908).
T3 sequence (P08908 whole entry): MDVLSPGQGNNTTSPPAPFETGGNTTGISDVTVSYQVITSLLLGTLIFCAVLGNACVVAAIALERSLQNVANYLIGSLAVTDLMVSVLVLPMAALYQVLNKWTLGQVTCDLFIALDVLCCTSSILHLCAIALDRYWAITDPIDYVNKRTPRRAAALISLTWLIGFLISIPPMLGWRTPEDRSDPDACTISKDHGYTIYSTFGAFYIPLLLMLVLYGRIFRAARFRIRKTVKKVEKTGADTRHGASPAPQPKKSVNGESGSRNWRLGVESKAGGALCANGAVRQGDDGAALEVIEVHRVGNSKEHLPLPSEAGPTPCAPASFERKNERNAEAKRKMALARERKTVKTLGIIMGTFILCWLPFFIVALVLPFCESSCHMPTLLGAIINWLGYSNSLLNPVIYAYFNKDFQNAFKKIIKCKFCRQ
Kind of data set: Agonist activity at 5HT1A (unknown origin) receptor.

Amyloid-beta precursor protein (Homo sapiens), sequence (P05067 whole entry): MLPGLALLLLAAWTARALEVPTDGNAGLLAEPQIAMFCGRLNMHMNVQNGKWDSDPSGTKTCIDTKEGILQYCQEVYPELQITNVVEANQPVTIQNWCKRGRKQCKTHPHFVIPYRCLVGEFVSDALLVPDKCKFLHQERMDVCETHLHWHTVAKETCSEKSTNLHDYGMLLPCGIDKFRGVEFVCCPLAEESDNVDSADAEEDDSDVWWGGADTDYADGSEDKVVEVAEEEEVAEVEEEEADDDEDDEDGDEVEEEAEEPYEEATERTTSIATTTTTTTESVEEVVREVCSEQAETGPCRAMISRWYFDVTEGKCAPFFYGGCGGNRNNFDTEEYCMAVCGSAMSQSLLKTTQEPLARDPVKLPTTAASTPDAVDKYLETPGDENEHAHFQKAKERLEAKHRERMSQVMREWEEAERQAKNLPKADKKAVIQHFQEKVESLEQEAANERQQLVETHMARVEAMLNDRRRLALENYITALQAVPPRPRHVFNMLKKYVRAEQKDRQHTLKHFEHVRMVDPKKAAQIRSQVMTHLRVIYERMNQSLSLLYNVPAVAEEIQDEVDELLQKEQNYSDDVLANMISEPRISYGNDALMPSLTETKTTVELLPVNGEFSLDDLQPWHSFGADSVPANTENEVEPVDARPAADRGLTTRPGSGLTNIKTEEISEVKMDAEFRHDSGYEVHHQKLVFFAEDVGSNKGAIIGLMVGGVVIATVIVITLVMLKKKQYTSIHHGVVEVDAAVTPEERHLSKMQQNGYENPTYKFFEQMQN
T1 sequence (P22303 whole entry): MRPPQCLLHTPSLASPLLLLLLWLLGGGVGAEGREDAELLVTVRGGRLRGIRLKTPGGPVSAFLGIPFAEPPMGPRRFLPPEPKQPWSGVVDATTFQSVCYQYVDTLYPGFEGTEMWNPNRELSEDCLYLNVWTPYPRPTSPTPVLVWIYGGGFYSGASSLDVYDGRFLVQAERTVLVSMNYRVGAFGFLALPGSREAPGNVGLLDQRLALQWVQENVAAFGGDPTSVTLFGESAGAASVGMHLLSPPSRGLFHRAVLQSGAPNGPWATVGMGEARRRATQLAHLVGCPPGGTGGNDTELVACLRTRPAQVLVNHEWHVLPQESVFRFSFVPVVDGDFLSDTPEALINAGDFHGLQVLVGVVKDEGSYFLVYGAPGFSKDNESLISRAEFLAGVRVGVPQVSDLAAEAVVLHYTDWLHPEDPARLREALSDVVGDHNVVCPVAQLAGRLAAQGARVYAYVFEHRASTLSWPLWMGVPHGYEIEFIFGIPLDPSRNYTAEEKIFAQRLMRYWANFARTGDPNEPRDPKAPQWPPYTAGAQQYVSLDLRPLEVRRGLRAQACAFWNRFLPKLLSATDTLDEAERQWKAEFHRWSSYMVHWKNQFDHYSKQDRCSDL
Beta-secretase 1, sequence (P56817 whole entry, the tested form may be a part): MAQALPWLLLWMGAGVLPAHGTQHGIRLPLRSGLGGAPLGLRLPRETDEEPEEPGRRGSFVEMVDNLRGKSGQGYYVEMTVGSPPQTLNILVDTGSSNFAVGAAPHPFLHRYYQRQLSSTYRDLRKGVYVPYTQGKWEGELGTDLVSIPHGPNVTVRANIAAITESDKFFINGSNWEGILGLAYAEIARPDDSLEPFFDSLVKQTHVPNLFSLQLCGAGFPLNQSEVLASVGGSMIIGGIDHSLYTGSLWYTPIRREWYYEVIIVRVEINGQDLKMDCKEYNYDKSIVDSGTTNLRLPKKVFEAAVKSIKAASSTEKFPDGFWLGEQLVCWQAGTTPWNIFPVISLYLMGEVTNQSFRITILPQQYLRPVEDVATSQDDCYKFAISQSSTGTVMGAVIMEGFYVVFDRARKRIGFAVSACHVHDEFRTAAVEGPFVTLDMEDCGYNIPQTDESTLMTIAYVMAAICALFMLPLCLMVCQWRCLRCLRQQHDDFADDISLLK
Melatonin receptor type 1A, sequence (P48039 whole entry): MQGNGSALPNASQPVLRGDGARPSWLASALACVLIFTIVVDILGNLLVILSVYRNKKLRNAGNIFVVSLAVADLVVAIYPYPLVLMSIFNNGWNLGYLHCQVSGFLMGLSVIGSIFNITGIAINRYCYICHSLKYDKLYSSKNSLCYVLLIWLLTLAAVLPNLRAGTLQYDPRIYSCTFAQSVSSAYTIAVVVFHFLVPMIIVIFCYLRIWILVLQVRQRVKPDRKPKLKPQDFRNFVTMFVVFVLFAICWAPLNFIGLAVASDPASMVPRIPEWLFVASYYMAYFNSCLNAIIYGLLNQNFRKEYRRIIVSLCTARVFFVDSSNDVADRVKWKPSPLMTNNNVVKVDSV

With `COC(=O)[C@H]1C(=O)N2CC[C@]3(C(=O)Nc4ccccc43)[C@H]2C[C@@H]1c1ccc(-c2cccc(Cl)c2)o1`, in the data set with SH-SY5Y [1], the Activity is 47%.
For `C/C=C1/CN2CCc3c([nH]c4ccccc34)[C@@H]2CC1/C(=C\C(=O)OC)OC` (stereo partly drawn), the 50% inhibitory concentration (IC50) against Acetylcholinesterase [2] is 3.7 µM; at Acetylcholinesterase [3], 10.1 µM.
The compound `CC#Cc1cncc(-c2ccc3c(c2)[C@@]2(CO3)N=C(N)C[C@H]2C(F)(F)F)c1` displayed an IC50 at Beta-secretase 1 of 0.115 µM.
`COC(=O)[C@@H]1C(=O)N2CC[C@@]3(C(=O)Nc4ccccc43)[C@@H]2C[C@H]1c1ccc(-c2ccc(Cl)c(Cl)c2)o1`: the Activity with SH-SY5Y [1] is listed as 61%.
On to `COC(=O)[C@@H]1C(=O)N2CC[C@@]3(C(=O)Nc4ccccc43)[C@@H]2C[C@H]1c1ccc(-c2cccc(Cl)c2)o1`, for which the Activity in the data set on SH-SY5Y [1] was determined as 20%.
As to `COC(=O)[C@H]1C(=O)N2CC[C@]3(C(=O)Nc4ccccc43)[C@H]2C[C@@H]1c1ccc(-c2ccc(Cl)c(Cl)c2)o1`, the Activity with SH-SY5Y [4] stood at 42%.
In the case of `CC[C@H]1CN2CC[C@]3(C(=O)Nc4ccccc43)C2C[C@@H]1/C(=C\OC)C(=O)OC` (stereo partly drawn), the results for the Activity in the data set with VSMC [5], in the data set on VSMC [6] and with VSMC [7] were 88%, 63% and 25%, respectively.
Consider `Oc1cc(O)c2c(c1)O[C@H](c1ccc(O)c(O)c1)[C@@H](O)C2` [CIANIDANOL], for which the half-maximal inhibitory concentration (IC50) in [8] came out at 25.8 µM; in data set [9] it was 47.3 µM.
As to `CC(C)[C@@]1(NC(=O)[C@@H]2C[C@@H]3c4cccc5[nH]cc(c45)C[C@H]3N(C)C2)O[C@@]2(O)[C@@H]3CCCN3C(=O)[C@H](Cc3ccccc3)N2C1=O` [DIHYDROERGOCRISTINE], the inhibition in [10] turned out to be 30%. Also, in data set [11], the Ke is 9.8 µM. Half-maximal inhibition at Gamma-secretase (IC50) required 25 µM.
In [12], `CC[C@H]1CN2CC[C@@]3(C(=O)Nc4ccccc43)[C@@H]2C[C@@H]1/C(=C\OC)C(=O)OC` [ISORHYNCHOPHYLLINE] gave a bioavailability of 3.3%. In data set [13], the metabolised was found to be 22%.
Take `Oc1cc(O)c2c(c1)O[C@H](c1ccc(O)c(O)c1)[C@H](O)[C@H]2c1c(O)cc(O)c2c1O[C@H](c1ccc(O)c(O)c1)[C@H](O)C2` [PROCYANIDIN B2]: the inhibition in data set [14] is 63%; in [15], 94%. The same compound showed a peak concentration (Cmax) in data set [16] of 160 nM.
For `CC[C@H]1CN2CC[C@]3(C(=O)Nc4ccccc43)[C@@H]2C[C@@H]1/C(=C\OC)C(=O)OC` [RHYNCHOPHYLLINE], the concentration giving a half-maximal response (EC50) in data set [17] is 45.3 µM. In [12], this compound had a bioavailability of 25.9%. For the same compound, the metabolised in [13] came out at 22%.

As usually defined, the IC50 is the midpoint of a concentration-inhibition curve. In general, inhibition refers to the relative decrease from the control value, in per cent. What is called bioavailability is the share of a dose that reaches the circulation, judged against a reference dose that is usually intravenous. Low values mean little systemic uptake, high ones much systemic uptake. By Cmax is commonly meant the maximum level reached in the sampled fluid or tissue. What is called EC50 is the concentration that produces a half-maximal response. Low values mean a more potent agent, high ones a less potent agent.

The values above are taken from ChEMBL document CHEMBL5230142, “Natural spirocyclic alkaloids and polyphenols as multi target dementia leads” (Bioorg Med Chem, 2021).
